Measurements: patent US9127303B2, “Method for detection of beta-D-glucuronidase activity in a sample” (Biosynth AG, priority 2011, dated 2015)

Tests used:
[1] = tested on: beta-D-glucuronidase negative strains; test: Detection of microbial beta-D-glucuronidase activity in broth cultures in microtiter plates; type: cell-based, Citrobacter freundii, Salmonella enteritidis; settings: NB, 0.1 mM, 37° C., 20 hours
Description: (§1) Fluorescence in arbitrary units (RFU, relative fluorescence units) is plotted vs. time (h).
(§2) Wells of a microtiter plate were filled with Nutrient Broth (NB: 5 g/l peptone, 5 g/l NaCl, 2 g/l yeast extract, 1 g/l beef extract, pH 7.4) containing Resorufin-beta-D-glucuronic acid or Resorufin-beta-D-glucuronic acid methyl ester at concentrations of 0.1 mM. The wells were inoculated with about 10 cfu of cultures pregrown over night on NB and incubated at 37° C. for 20 hours. Fluorescence was measured every 20 minutes at an excitation wavelength of 570 nm and an emission wavelength of 600 nm (FIG. 1).

[2] = tested on: esterase (from porcine liver); test: Enzymatic assay with esterase only; type: biochemical; settings: 10 units esterase only, 0.1 mM, pH 6.8, 37° C., 1 hour
Description: (§3) Resorufin-beta-D-glucuronic acid or Resorufin-beta-D-glucuronic acid methyl ester was incubated in presence of glucuronidase, esterase, both enzymes or without enzyme. Measurements were done in microtiter plates at 37° C. in a Spectramax M5 platereader (λex=570 nm, λem=600 nm). Fluorescence in arbitrary units (RFU, relative fluorescence units) is plotted vs. time (min).
(§4) Wells of a microtiter plate were filled with buffer (35 mM potassium phosphate, 4.7 mg/ml bovine serum albumin, pH 6.8) containing Resorufin-beta-D-glucuronic acid or Resorufin-beta-D-glucuronic acid methyl ester at concentrations of 0.1 mM. To the wells were added either a) 0.3 unit beta-D-glucuronidase (type VII-A from E. coli) or b) 10 units esterase (from porcine liver) or c) 0.3 unit beta-D-glucuronidase and 10 units esterase or d) no enzyme. The microtiter plate was incubated at 37° C. for 1 hour. Fluorescence was measured every 1.5 minutes at an excitation wavelength of 570 nm and an emission wavelength of 600 nm (FIG. 2).

Aeromonas hydrophila = test: Detection of microbial beta-D-glucuronidase in broth cultures in test tubes; type: cell-based; parameters: key: positive (pink colour); negative (yellow colour); settings: 1 strain, TBB, 0.1 mM, 37° C., 16 hours
Description: (§5) Resorufin-beta-D-glucuronic acid or Resorufin-beta-D-glucuronic acid methyl ester was added to test tubes containing 3 ml of Nutrient Broth (NB: 5 g/l peptone, 5 g/l NaCl, 2 g/l yeast extract, 1 g/l beef extract, pH 7.4) or Tryptone Bile Broth (TBB: 20 g/l tryptone, 1.5 g/l bile salts No. 3) at a concentration of 0.1 mM. Tubes were inoculated with cultures pregrown over night on NB and incubated at 37° C. for 16 hours. Tubes were scored visually for beta-D-glucuronidase activity as positive (pink colour) or negative (yellow colour). Both substrates gave the same results for all strains tested (Table 1), showing that the Resorufin-beta-D-glucuronic acid methyl ester can be used in place of the Resorufin-beta-D-glucuronic acid for detection of E. coli.

Escherichia coli = test: as above; type: cell-based; parameters: key: positive (pink colour); negative (yellow colour); settings: 19 strains, TBB, 0.1 mM, 37° C., 16 hours
Description: as §5

Salmonella Enteritidis = test: as above; type: cell-based; parameters: key: positive (pink colour); negative (yellow colour); settings: 1 strain, TBB, 0.1 mM, 37° C., 16 hours
Description: as §5

[3] = tested on: Staphylococcus haemolyticus; test: as above; type: cell-based; parameters: key: positive (pink colour); negative (yellow colour); settings: 1 strain, NB, 0.1 mM, 37° C., 16 hours
Description: as §5

Proteus vulgaris = test: as above; type: cell-based; parameters: key: positive (pink colour); negative (yellow colour); settings: 1 strain, NB, 0.1 mM, 37° C., 16 hours
Description: as §5

Enterobacter aerogenes = test: as above; type: cell-based; parameters: key: positive (pink colour); negative (yellow colour); settings: 1 strain, TBB, 0.1 mM, 37° C., 16 hours
Description: as §5

Staphylococcus aureus = test: as above; type: cell-based; parameters: key: positive (pink colour); negative (yellow colour); settings: 1 strain, NB, 0.1 mM, 37° C., 16 hours
Description: as §5

Pseudomonas aeruginosa = test: as above; type: cell-based; parameters: key: positive (pink colour); negative (yellow colour); settings: 1 strain, TBB, 0.1 mM, 37° C., 16 hours
Description: as §5

Enterococcus faecalis = test: as above; type: cell-based; parameters: key: positive (pink colour); negative (yellow colour); settings: 1 strain, TBB, 0.1 mM, 37° C., 16 hours
Description: as §5

Serratia marcescens = test: as above; type: cell-based; parameters: key: positive (pink colour); negative (yellow colour); settings: 1 strain, TBB, 0.1 mM, 37° C., 16 hours
Description: as §5

Citrobacter freundii = test: as above; type: cell-based; parameters: key: positive (pink colour); negative (yellow colour); settings: 1 strain, TBB, 0.1 mM, 37° C., 16 hours
Description: as §5

Klebsiella pneumoniae = test: as above; type: cell-based; parameters: key: positive (pink colour); negative (yellow colour); settings: 1 strain, TBB, 0.1 mM, 37° C., 16 hours
Description: as §5

Yersinia enterocolitica = test: as above; type: cell-based; parameters: key: positive (pink colour); negative (yellow colour); settings: 1 strain, NB, 0.1 mM, 37° C., 16 hours
Description: as §5

Escherichia coli O157:H7 = test: as above; type: cell-based; parameters: key: positive (pink colour); negative (yellow colour); settings: Escherichia coli O157:H7, 2 strains, TBB, 0.1 mM, 37° C., 16 hours
Description: as §5

Salmonella Typhimurium = test: as above; type: cell-based; parameters: key: positive (pink colour); negative (yellow colour); settings: 1 strain, NB, 0.1 mM, 37° C., 16 hours
Description: as §5

Acinetobacter baumanii = test: as above; type: cell-based; parameters: key: positive (pink colour); negative (yellow colour); settings: 1 strain, NB, 0.1 mM, 37° C., 16 hours
Description: as §5

Bacillus cereus = test: as above; type: cell-based; parameters: key: positive (pink colour); negative (yellow colour); settings: 1 strain, NB, 0.1 mM, 37° C., 16 hours
Description: as §5

Hafnia alvei = test: as above; type: cell-based; parameters: key: positive (pink colour); negative (yellow colour); settings: 1 strain, NB, 0.1 mM, 37° C., 16 hours
Description: as §5

Enterobacter cloacae = test: as above; type: cell-based; parameters: key: positive (pink colour); negative (yellow colour); settings: 1 strain, NB, 0.1 mM, 37° C., 16 hours
Description: as §5

Vibrio parahaemolyticus = test: as above; type: cell-based; parameters: key: positive (pink colour); negative (yellow colour); settings: 1 strain, NB, 0.1 mM, 37° C., 16 hours
Description: as §5

[4] = tested on: beta-D-glucuronidase positive strains (Escherichia coli); test: Detection of microbial beta-D-glucuronidase activity in broth cultures in microtiter plates; type: cell-based; settings: NB, 0.1 mM, 37° C., 20 hours; for Fluorescence (excitation 570 nm, emission 600 nm) over time: about 10 cfu
Description: as §1, §2

[5] = target: beta-D-glucuronidase (type VII-A from E. coli) (Escherichia coli, UniProt P05804); test: Enzymatic assay with purified beta-D-glucuronidase; type: biochemical; settings: 0.1 mM, pH 6.8, 37° C., 1 hour
beta-D-glucuronidase (type VII-A from E. coli), sequence (P05804 whole entry): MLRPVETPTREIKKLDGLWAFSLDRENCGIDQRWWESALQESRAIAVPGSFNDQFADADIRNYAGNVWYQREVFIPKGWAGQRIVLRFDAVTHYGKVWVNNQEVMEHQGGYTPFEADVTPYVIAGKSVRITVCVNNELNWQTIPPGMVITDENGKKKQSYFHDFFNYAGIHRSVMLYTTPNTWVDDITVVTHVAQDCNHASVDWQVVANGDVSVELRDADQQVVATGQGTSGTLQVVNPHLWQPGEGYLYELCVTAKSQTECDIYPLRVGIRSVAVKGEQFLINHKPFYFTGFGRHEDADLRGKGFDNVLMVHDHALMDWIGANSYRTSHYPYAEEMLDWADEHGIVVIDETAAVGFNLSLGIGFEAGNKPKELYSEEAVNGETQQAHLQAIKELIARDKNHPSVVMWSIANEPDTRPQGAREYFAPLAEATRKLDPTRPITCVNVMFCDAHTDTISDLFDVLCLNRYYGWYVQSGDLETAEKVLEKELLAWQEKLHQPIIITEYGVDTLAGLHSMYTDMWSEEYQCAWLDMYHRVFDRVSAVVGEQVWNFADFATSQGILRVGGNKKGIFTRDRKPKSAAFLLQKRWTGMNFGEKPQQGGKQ
Description: as §3, §4

[6] = Hydrolysis of the methyl ester in Nutrient Broth medium; type: physicochemical; settings: pH 7.4, 37° C.
Description: (§6) Wells of a microtiter plate were filled with 100 μl Nutrient Broth (NB: 5 g/l peptone, 5 g/l NaCl, 2 g/l yeast extract, 1 g/l beef extract, pH 7.4) containing Resorufin-beta-D-glucuronic acid or Resorufin-beta-D-glucuronic acid methyl ester at concentrations of 0.2 mM. The wells were incubated for different times (21 h, 3.5 h, 0 h) at 37° C. After incubation, 100 μl of an E. coli culture pregrown over night on NB was added (about 10^8 cfu/ml). Fluorescence was measured every 1.5 minutes at an excitation wavelength of 570 nm and an emission wavelength of 600 nm (FIG. 3). The longer the preincubation time of the medium, the more Resorufin-beta-D-glucuronic acid originated from the Resorufin-beta-D-glucuronic acid methyl ester through hydrolysis.

E. coli culture = test: Detection of microbial beta-D-glucuronidase in preincubated medium; type: cell-based; settings: NB with 0.2 mM, preincubated 21 h, 3.5 h, 0 h at 37° C., E. coli about 10^8 cfu/ml
Description: The media with the Resorufin-beta-D-glucuronic acid methyl ester were preincubated for different time periods. Measurements were done in microtiter plates at 37° C. in a Spectramax M5 platereader (λex=570 nm, λem=600 nm). Fluorescence in arbitrary units (RFU, relative fluorescence units) is plotted vs. time (min).
as §6

[7] = 0.3 unit beta-D-glucuronidase and 10 units esterase
[8] = 0.3 unit beta-D-glucuronidase without esterase

SMILES	Fluorescence (excitation 570 nm, emission 600 nm) over time [1]	Fluorescence (excitation 570 nm, emission 600 nm) over time [2]	Result, beta-D-glucuronidase activity scored visually (Aeromonas hydrophila)	Result, beta-D-glucuronidase activity scored visually (Escherichia coli)	Result, beta-D-glucuronidase activity scored visually (Salmonella Enteritidis)	Result, beta-D-glucuronidase activity scored visually [3]	Result, beta-D-glucuronidase activity scored visually (Proteus vulgaris)	Result, beta-D-glucuronidase activity scored visually (Enterobacter aerogenes)	Result, beta-D-glucuronidase activity scored visually (Staphylococcus aureus)	Result, beta-D-glucuronidase activity scored visually (Pseudomonas aeruginosa)	Result, beta-D-glucuronidase activity scored visually (Enterococcus faecalis)	Result, beta-D-glucuronidase activity scored visually (Serratia marcescens)	Result, beta-D-glucuronidase activity scored visually (Citrobacter freundii)	Result, beta-D-glucuronidase activity scored visually (Klebsiella pneumoniae)	Result, beta-D-glucuronidase activity scored visually (Yersinia enterocolitica)	Result, beta-D-glucuronidase activity scored visually (Escherichia coli O157:H7)	Result, beta-D-glucuronidase activity scored visually (Salmonella Typhimurium)	Result, beta-D-glucuronidase activity scored visually (Acinetobacter baumanii)	Result, beta-D-glucuronidase activity scored visually (Bacillus cereus)	Result, beta-D-glucuronidase activity scored visually (Hafnia alvei)	also measured
O=C([O-])C1OC(Oc2ccc3nc4ccc(=O)cc-4oc3c2)C(O)C(O)C1O.[Na+] [Resorufin-beta-D-glucuronic acid, reference compound]	only low background signal	low background signal	negative	positive	negative	negative	negative	negative	negative	negative	negative	negative	negative	negative	negative	negative	negative	negative	negative	negative	Result, beta-D-glucuronidase activity scored visually (Enterobacter cloacae): negative; Result, beta-D-glucuronidase activity scored visually (Vibrio parahaemolyticus): negative; Fluorescence (excitation 570 nm, emission 600 nm) over time [4]: increase in fluorescence; Fluorescence (excitation 570 nm, emission 600 nm) over time [5, 7]: fast increase of fluorescence; Fluorescence (excitation 570 nm, emission 600 nm) over time [5, 8]: fast increase of fluorescence
COC(=O)[C@H]1O[C@@H](Oc2ccc3nc4ccc(=O)cc-4oc3c2)[C@H](O)[C@@H](O)[C@@H]1O [Resorufin-beta-D-glucuronic acid methyl ester]	only low background signal	low background signal	negative	positive	negative	negative	negative	negative	negative	negative	negative	negative	negative	negative	negative	negative	negative	negative	negative	negative	Hydrolysis of the methyl ester to Resorufin-beta-D-glucuronic acid in medium [6]: surprisingly fast; Result, beta-D-glucuronidase activity scored visually (Enterobacter cloacae): negative; Result, beta-D-glucuronidase activity scored visually (Vibrio parahaemolyticus): negative; Speed of increase in fluorescence compared with Resorufin-beta-D-glucuronic acid [4]: a little slower; Fluorescence (excitation 570 nm, emission 600 nm) over time [4]: increase in fluorescence; Fluorescence signal after adding E. coli culture, compared with Resorufin-beta-D-glucuronic acid medium (E. coli culture): gets closer to the signal from media originally containing the Resorufin-beta-D-glucuronic acid with longer preincubation time; Fluorescence (excitation 570 nm, emission 600 nm) over time [5, 7]: fast increase of fluorescence; Fluorescence (excitation 570 nm, emission 600 nm) over time [5, 8]: only a slow increase of fluorescence
